This note sets out measurements from patent US8906852B2 (MethylGene Inc., priority 2010, dated 2014).

A value given as a limit tells only on which side of the number the result lay.

The target of this test is T1, VEGFR/KDR (Homo sapiens, UniProt P35968).
T1 construct: made in house; host or cells: Sf9 cells (Spodoptera frugiperda), baculovirus
T1 sequence (P35968 806-1356): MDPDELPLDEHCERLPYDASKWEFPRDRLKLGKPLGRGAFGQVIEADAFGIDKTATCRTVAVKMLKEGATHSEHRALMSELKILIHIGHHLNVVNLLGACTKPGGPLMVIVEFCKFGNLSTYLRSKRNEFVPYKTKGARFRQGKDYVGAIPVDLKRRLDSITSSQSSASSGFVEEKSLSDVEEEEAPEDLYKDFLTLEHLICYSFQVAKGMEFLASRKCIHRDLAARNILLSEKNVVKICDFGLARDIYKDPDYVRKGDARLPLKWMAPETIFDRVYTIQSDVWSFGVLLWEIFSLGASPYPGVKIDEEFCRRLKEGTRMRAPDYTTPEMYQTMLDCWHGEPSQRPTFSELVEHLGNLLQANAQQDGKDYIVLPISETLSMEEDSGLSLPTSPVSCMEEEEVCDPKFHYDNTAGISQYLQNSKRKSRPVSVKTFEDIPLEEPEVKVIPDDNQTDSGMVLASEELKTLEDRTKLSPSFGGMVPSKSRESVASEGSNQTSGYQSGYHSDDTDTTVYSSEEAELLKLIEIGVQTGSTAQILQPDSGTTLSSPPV
Put plainly: VEGFR/KDR kinase inhibition, DELFIA assay. The class given is biochemical. The note with it: ATP 0.6 uM (2x Km), enzyme 5 nM. Summed up: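 DELFIA time-resolved fluorescence readout using Europium-tagged anti-phosphotyrosine antibody after EDTA stop. Kinase reaction on plate-bound poly(Glu4,Tyr) ran 10-30 min at 30° C with 5 nM enzyme and 0.6 uM ATP (2× Km), following 4 min on-ice pre-incubation with compound; IC50 over a concentration range.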
One may read the IC50 as the concentration that inhibits the measured activity by half. Read a low IC50 as higher potency. Compound `COCCN(Cc1ccc(-c2cc3nccc(Oc4ccc(NC(=S)NC5CC5)cc4F)c3s2)nc1)C(C)=O` [Compound 504, N-((6-(7-(4-(3-cyclopropylthioureido)-2-fluorophenoxy)thieno[3,2-b]pyridin-2-yl)pyridin-3-yl)methyl)-N-(2-methoxyethyl)acetamide] yielded an IC50 below 50 nM. `COCCN(Cc1ccc(-c2cc3nccc(Oc4ccc(NC(=S)NC5CC5)cc4F)c3s2)nc1)C(=O)CO` [Compound 505, N-((6-(7-(4-(3-cyclopropylthioureido)-2-fluorophenoxy)thieno[3,2-b]pyridin-2-yl)pyridin-3-yl)methyl)-2-hydroxy-N-(2-methoxyethyl)acetamide] returned an IC50 of 50 to 100 nM.

For the compound `COC(=O)CC(=O)N1CCN(Cc2ccc(-c3cc4nccc(Oc5ccc(NC(=O)NC6CC6)cc5F)c4s3)nc2)CC1` [Compound 506, methyl 3-(4-((6-(7-(4-(3-cyclopropylureido)-2-fluorophenoxy)thieno[3,2-b]pyridin-2-yl)pyridin-3-yl)methyl)piperazin-1-yl)-3-oxopropanoate], the 50% inhibitory concentration (IC50) was below 50 nM. The compound `COC(=O)CCN1CCN(Cc2ccc(-c3cc4nccc(Oc5ccc(NC(=O)NC6CC6)cc5F)c4s3)nc2)CC1` [Compound 507, methyl 3-(4-((6-(7-(4-(3-cyclopropylureido)-2-fluorophenoxy)thieno[3,2-b]pyridin-2-yl)pyridin-3-yl)methyl)piperazin-1-yl)propanoate] showed an IC50 below 50 nM.

Regarding `COC(=O)CC(C)N1CCN(Cc2ccc(-c3cc4nccc(Oc5ccc(NC(=O)NC6CC6)cc5F)c4s3)nc2)CC1` (centres unmarked) [Compound 508, methyl 3-(4-((6-(7-(4-(3-cyclopropylureido)-2-fluorophenoxy)thieno[3,2-b]pyridin-2-yl)pyridin-3-yl)methyl)piperazin-1-yl)butanoate], the half-maximal inhibitory concentration (IC50) is below 50 nM. Regarding `CCOC(=O)CC(N1CCN(Cc2ccc(-c3cc4nccc(Oc5ccc(NC(=O)NC6CC6)cc5F)c4s3)nc2)CC1)C(F)(F)F` (centres unmarked) [Compound 509, ethyl 3-(4-((6-(7-(4-(3-cyclopropylureido)-2-fluorophenoxy)thieno[3,2-b]pyridin-2-yl)pyridin-3-yl)methyl)piperazin-1-yl)-4,4,4-trifluorobutanoate], the IC50 was below 50 nM.

`O=C(O)CC(=O)N1CCN(Cc2ccc(-c3cc4nccc(Oc5ccc(NC(=O)NC6CC6)cc5F)c4s3)nc2)CC1` [Compound 510, 3-(4-((6-(7-(4-(3-cyclopropylureido)-2-fluorophenoxy)thieno[3,2-b]pyridin-2-yl)pyridin-3-yl)methyl)piperazin-1-yl)-3-oxopropanoic acid] showed an IC50 below 50 nM. Turning to `O=C(O)CC(N1CCN(Cc2ccc(-c3cc4nccc(Oc5ccc(NC(=O)NC6CC6)cc5F)c4s3)nc2)CC1)C(F)(F)F` (centres unmarked) [Compound 511, 3-(4-((6-(7-(4-(3-cyclopropylureido)-2-fluorophenoxy)thieno[3,2-b]pyridin-2-yl)pyridin-yl)methyl)piperazin-1-yl)-4,4,4-trifluorobutanoic acid], the IC50 was below 50 nM. As for `O=C(Nc1ccc(Oc2ccnc3cc(-c4ccc(CN5CCN(CCc6nnn[nH]6)CC5)cn4)sc23)c(F)c1)NC1CC1` [Compound 512, 1-(4-(2-(5-((4-(2-(1H-tetrazol-5-yl)ethyl)piperazin-1-yl)methyl)pyridin-2-yl)thieno[3,2-b]pyridin-7-yloxy)-3-fluorophenyl)-3-cyclopropylurea], the IC50 was below 50 nM.

`CCOC(=O)CC(C)N1CCN(Cc2ccc(-c3cc4nccc(Oc5ccc(NC(=O)NC6CC6)cc5F)c4s3)nc2)CC1` (centres unmarked) [Compound 515, Ethyl 3-(4-((6-(7-(4-(3-cyclopropylureido)-2-fluorophenoxy)thieno[3,2-b]pyridin-2-yl)pyridin-3-yl)methyl)piperazin-1-yl)butanoate] showed an IC50 below 50 nM. In the case of `CC(CC(=O)O)N1CCN(Cc2ccc(-c3cc4nccc(Oc5ccc(NC(=O)NC6CC6)cc5F)c4s3)nc2)CC1` (centres unmarked) [Compound 516] it was below 50 nM; in that of `O=C(O)CCCCN1CCN(Cc2ccc(-c3cc4nccc(Oc5ccc(NC(=O)NC6CC6)cc5F)c4s3)nc2)CC1` [Compound 518, 5-(4-((6-(7-(4-(3-cyclopropylureido)-2-fluorophenoxy)thieno[3,2-b]pyridin-2-yl)pyridin-3-yl)methyl)piperazin-1-yl)pentanoic acid], below 50 nM; in that of `O=C(O)CCCN1CCN(Cc2ccc(-c3cc4nccc(Oc5ccc(NC(=O)NC6CC6)cc5F)c4s3)nc2)CC1` [Compound 519, 4-(4-((6-(7-(4-(3-cyclopropylureido)-2-fluorophenoxy)thieno[3,2-b]pyridin-2-yl)pyridin-3-yl)methyl)piperazin-1-yl)butanoic acid], below 50 nM. In the case of `O=C(O)CCCCCN1CCN(Cc2ccc(-c3cc4nccc(Oc5ccc(NC(=O)NC6CC6)cc5F)c4s3)nc2)CC1` [Compound 520, 6-(4-((6-(7-(4-(3-cyclopropylureido)-2-fluorophenoxy)thieno[3,2-b]pyridin-2-yl)pyridin-3-yl)methyl)piperazin-1-yl)hexanoic acid] it was below 50 nM; in that of `O=C(O)CCCCCCN1CCN(Cc2ccc(-c3cc4nccc(Oc5ccc(NC(=O)NC6CC6)cc5F)c4s3)nc2)CC1` [Compound 521, 7-(4-((6-(7-(4-(3-cyclopropylureido)-2-fluorophenoxy)thieno[3,2-b]pyridin-2-yl)pyridin-3-yl)methyl)piperazin-1-yl)heptanoic acid], below 50 nM.

`O=C(O)CCCCCCCN1CCN(Cc2ccc(-c3cc4nccc(Oc5ccc(NC(=O)NC6CC6)cc5F)c4s3)nc2)CC1` [Compound 522, 8-(4-((6-(7-(4-(3-cyclopropylureido)-2-fluorophenoxy)thieno[3,2-b]pyridin-2-yl)pyridin-3-yl)methyl)piperazin-1-yl)octanoic acid] came in with a 50% inhibitory concentration (IC50) below 50 nM.

`O=C(Nc1ccc(Oc2ccnc3cc(-c4ccc(CN5CCC6(CC5)CCN(C(=O)CO)C6)cn4)sc23)c(F)c1)NC1CC1` [Compound 524, 1-cyclopropyl-3-(3-fluoro-4-(2-(5-((2-(2-hydroxyacetyl)-2,8-diazaspiro[4.5]decan-8-yl)methyl)pyridin-2-yl)thieno[3,2-b]pyridin-7-yloxy)phenyl)urea] came in with a concentration for half-maximal inhibition (IC50) below 50 nM. In the case of `O=C(Nc1ccc(Oc2ccnc3cc(-c4ccc(CN5CCCN(C(=O)CO)CC5)cn4)sc23)c(F)c1)NC1CC1` [Compound 526, 1-cyclopropyl-3-(3-fluoro-4-(2-(5-((4-(2-hydroxyacetyl)-1,4-diazepan-1-yl)methyl)pyridin-2-yl)thieno[3,2-b]-pyridin-7-yloxy)phenyl)urea] it was below 50 nM; in that of `C[C@H]1CN(Cc2ccc(-c3cc4nccc(Oc5ccc(NC(=O)NC6CC6)cc5F)c4s3)nc2)CCN1` [Compound 527], below 50 nM. In the case of `CC(=O)OCC(=O)N1CCN(Cc2ccc(-c3cc4nccc(Oc5ccc(NC(=O)NC6CC6)cc5F)c4s3)nc2)C[C@@H]1C` [Compound 528, (S)-2-(4-((6-(7-(4-(3-cyclopropylureido)-2-fluorophenoxy)thieno[3,2-b]pyridin-2-yl)pyridin-3-yl)methyl)-2-methylpiperazin-1-yl)-2-oxoethyl acetate] it was below 50 nM; in that of `C[C@H]1CN(Cc2ccc(-c3cc4nccc(Oc5ccc(NC(=O)NC6CC6)cc5F)c4s3)nc2)CCN1C(=O)CO` [Compound 529, (S)-1-cyclopropyl-3-(3-fluoro-4-(2-(5-((4-(2-hydroxyacetyl)-3-methylpiperazin-1-yl)methyl)pyridin-2-yl)thieno[3,2-b]pyridin-7-yloxy)phenyl)urea], below 50 nM. In the case of `C[C@@H]1CN(Cc2ccc(-c3cc4nccc(Oc5ccc(NC(=O)NC6CC6)cc5F)c4s3)nc2)C[C@H](C)N1` [Compound 530, 1-cyclopropyl-3-(4-(2-(5-(((3S,5R)-3,5-dimethylpiperazin-1-yl)methyl)pyridin-2-yl)thieno[3,2-b]-pyridin-7-yloxy)-3-fluorophenyl)urea] it was below 50 nM; in that of `C[C@@H]1CN(Cc2ccc(-c3cc4nccc(Oc5ccc(NC(=O)NC6CC6)cc5F)c4s3)nc2)C[C@H](C)N1C(=O)CO` [Compound 531, 1-cyclopropyl-3-(3-fluoro-4-(2-(5-(((3S,5R)-4-(2-hydroxyacetyl)-3,5-dimethylpiperazin-1-yl)methyl)pyyridin-2-yl)thieno[3,2-b]pyridin-7-yloxy)phenyl)urea], below 50 nM; in that of `O=C(Nc1ccc(Oc2ccnc3cc(-c4ccc(CN5CCOCCOCCOCC5)cn4)sc23)c(F)c1)NC1CC1` [Compound 532], below 50 nM.

`O=C(Nc1ccc(Oc2ccnc3cc(-c4ccc(CN5CCOCCOCCOCCOCC5)cn4)sc23)c(F)c1)NC1CC1` [Compound 533] showed an IC50 below 50 nM. In the case of `O=C(Nc1ccc(Oc2ccnc3cc(-c4ccc(CN5CCN(C(=O)CCCC[C@H]6SC[C@H]7NC(=O)N[C@H]76)CC5)cn4)sc23)c(F)c1)NC1CC1` [Compound 535] it was below 50 nM; in that of `O=C(Nc1ccc(Oc2ccnc3cc(-c4ccc(CN5CCN(C(=O)[C@@H](O)CO)CC5)cn4)sc23)c(F)c1)NC1CC1` [Compound 536], below 50 nM; in that of `CC(C)(CO)C(=O)N1CCN(Cc2ccc(-c3cc4nccc(Oc5ccc(NC(=O)NC6CC6)cc5F)c4s3)nc2)CC1` [Compound 537], below 50 nM.

On to `CN(C)CC(=O)N1CCN(Cc2ccc(-c3cc4nccc(Oc5ccc(NC(=O)NC6CC6)cc5F)c4s3)nc2)CC1` [Compound 538], for which the half-inhibitory concentration (IC50) is below 50 nM. The compound `CN1CCC(C(=O)N2CCN(Cc3ccc(-c4cc5nccc(Oc6ccc(NC(=O)NC7CC7)cc6F)c5s4)nc3)CC2)CC1` [Compound 539] registered an IC50 below 50 nM. In the case of `O=C(Nc1ccc(Oc2ccnc3cc(-c4ccc(CN5CCN(C(=O)[C@H](O)CO)CC5)cn4)sc23)c(F)c1)NC1CC1` [Compound 540] it was below 50 nM; in that of `O=C(Nc1ccc(Oc2ccnc3cc(-c4ccc(CN5CCN(C(=O)[C@H]6CCC(=O)O6)CC5)cn4)sc23)c(F)c1)NC1CC1` [Compound 543], below 50 nM.
